The values that follow come from ChEMBL document CHEMBL4184333, “Expanding Benzoxazole-Based Inosine 5'-Monophosphate Dehydrogenase (IMPDH) Inhibitor Structure-Activity As Potential Antituberculosis Agents” (J Med Chem, 2018).

Each structure is given as a SMILES string. In brackets after ≈: the same amount, converted by molar mass. Bounds are passed on as bounds.

The subject of the experiment is Mycobacterium tuberculosis. Nature of the experiment: Antitubercular activity against Mycobacterium tuberculosis SRMV2.6 harboring IMPDH2 Y487C mutant using 7H9/ADC/Tween medium after 1 week in absence of guanine by Alamar blue assay. The experiment is classed as functional.
Consider `C[C@H](Nc1cccc(F)c1F)C(=O)Nc1ccc2oc(-c3ccc(C#N)cc3)nc2c1`, for which the MIC is above 100 µM.
Regarding `C[C@H](Oc1cccc(Cl)c1Cl)C(=O)Nc1ccc2oc(-c3ccc(C(=O)O)cc3)nc2c1`, the MIC was found to be 25 µM (≈ 11.8 µg/mL).
`COc1ccc(OC(C)C(=O)Nc2ccc3oc(-c4ccncc4)nc3c2)cc1` (centres undefined) gave an MIC above 100 µM.
With `CCOC(=O)COc1ccc(-c2nc3cc(NC(=O)[C@H](C)Oc4cccc(Cl)c4Cl)ccc3o2)cc1`, the MIC worked out at 3.1 µM (≈ 1.64 µg/mL).
